# Experimental data from patent US9056874B2, “Complement pathway modulators and uses thereof” (NOVARTIS AG, priority 2012, dated 2015).
# Target: factor B (Homo sapiens, UniProt P00751)
# Assay: factor B inhibition assay of Biological Example 1
# Format: biochemical
# Design: CVF-Bb complex prepared from purified cobra venom factor (1 μM), recombinant human complement factor B; made in house; host or cells: drosophila cells (factor B); E. coli (factor D used to form the complex)
# Conditions: IC50 (nM), assay of Biological Example 1 (Table 1)
# Chain of factor B (P00751 260-764 limits assumed): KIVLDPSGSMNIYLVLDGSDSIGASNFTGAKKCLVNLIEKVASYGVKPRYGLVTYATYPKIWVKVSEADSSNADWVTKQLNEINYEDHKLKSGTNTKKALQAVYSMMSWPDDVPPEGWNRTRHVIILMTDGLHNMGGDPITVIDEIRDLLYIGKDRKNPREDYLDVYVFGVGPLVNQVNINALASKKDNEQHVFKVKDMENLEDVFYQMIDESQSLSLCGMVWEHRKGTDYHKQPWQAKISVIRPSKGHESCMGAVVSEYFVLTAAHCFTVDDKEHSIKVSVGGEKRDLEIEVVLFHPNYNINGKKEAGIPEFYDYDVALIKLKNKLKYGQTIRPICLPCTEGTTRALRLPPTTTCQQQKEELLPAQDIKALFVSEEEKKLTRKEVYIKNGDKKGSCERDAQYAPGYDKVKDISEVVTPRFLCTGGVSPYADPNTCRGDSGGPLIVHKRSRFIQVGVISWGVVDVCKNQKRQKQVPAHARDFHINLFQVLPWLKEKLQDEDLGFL
# Chain of factor B (Q91132 23-649 partner limits assumed): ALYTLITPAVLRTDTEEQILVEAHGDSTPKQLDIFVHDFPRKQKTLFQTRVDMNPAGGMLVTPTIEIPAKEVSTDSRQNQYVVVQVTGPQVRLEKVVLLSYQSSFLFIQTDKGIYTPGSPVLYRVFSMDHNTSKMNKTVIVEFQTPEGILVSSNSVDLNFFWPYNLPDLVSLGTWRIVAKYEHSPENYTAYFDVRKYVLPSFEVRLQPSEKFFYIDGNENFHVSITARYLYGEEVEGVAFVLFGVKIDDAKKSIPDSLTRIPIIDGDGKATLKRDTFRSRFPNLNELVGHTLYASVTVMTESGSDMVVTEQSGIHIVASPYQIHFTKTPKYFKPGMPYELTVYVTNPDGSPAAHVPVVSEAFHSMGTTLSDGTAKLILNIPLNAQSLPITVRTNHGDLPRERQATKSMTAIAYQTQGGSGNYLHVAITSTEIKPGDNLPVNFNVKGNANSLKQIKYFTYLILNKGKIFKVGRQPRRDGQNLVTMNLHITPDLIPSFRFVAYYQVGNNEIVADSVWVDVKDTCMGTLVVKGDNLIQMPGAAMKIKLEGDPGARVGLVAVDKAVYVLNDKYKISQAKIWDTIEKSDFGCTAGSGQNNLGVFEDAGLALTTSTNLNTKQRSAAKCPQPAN
# Chain of factor B (Q91132 733-984 partner limits assumed): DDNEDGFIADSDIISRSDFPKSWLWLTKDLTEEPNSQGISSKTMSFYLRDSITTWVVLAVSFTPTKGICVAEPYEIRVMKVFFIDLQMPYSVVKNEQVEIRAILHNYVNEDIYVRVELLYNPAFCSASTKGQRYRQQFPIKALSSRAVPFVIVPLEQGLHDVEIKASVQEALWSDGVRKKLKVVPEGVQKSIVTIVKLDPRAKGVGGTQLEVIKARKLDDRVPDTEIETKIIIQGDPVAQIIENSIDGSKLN
# Chain of factor B (Q91132 1264-1642 partner limits assumed): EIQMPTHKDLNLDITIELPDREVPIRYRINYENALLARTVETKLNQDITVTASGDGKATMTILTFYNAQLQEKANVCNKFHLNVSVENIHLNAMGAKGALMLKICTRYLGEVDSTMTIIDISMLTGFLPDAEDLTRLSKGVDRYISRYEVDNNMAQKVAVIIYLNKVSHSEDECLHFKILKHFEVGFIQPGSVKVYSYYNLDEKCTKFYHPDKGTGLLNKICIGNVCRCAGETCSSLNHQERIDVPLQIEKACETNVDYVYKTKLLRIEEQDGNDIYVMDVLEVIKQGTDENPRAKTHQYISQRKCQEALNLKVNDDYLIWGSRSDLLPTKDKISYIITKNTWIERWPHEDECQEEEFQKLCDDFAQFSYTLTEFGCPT
row,Compound,IC50 [nM]
1,"Cc1cc(C)c2[nH]ccc2c1C(NS(C)(=O)=O)c1nc2cc(C#N)ccc2[nH]1 (racemic) [Example 99-B, (±)-N-((5-cyano-1H-benzo[d]imidazol-2-yl)(5,7-dimethyl-1H-indol-4-yl)methyl)methanesulfonamide]",750
2,Cc1cc(C)c2[nH]ccc2c1Cc1nc2cc(C#N)c(F)cc2[nH]1 [Example 63-G],5550
3,"COC(c1nc2cc(C#N)ccc2[nH]1)c1c(CC(C)C)cc(C)c2[nH]ccc12 (single isomer, unassigned; (-)) [71 b) (−), (−)-2-((5-isobutyl-7-methyl-1H-indol-4-yl)(methoxy)methyl)-1H-benzo[d]imidazole-5-carbonitrile]",4590
4,"COc1cc(C)c2[nH]ccc2c1C(OC)c1nc2cc(C#N)ccc2[nH]1 (racemic) [30-B b) (−), (−)-2-(methoxy(5-methoxy-7-methyl-1H-indol-4-yl)methyl)-1H-benzo[d]imidazole-5-carbonitrile]",160
5,"Cc1cc(CO)c(Cc2nc3cc(C#N)ccc3[nH]2)c2cc[nH]c12 [Example 59-C, 2-((5-(Hydroxymethyl)-7-methyl-1H-indol-4-yl)methyl)-1H-benzo[d]imidazole-5-carbonitrile]",1760
6,"Cc1cc(S(C)(=O)=O)c(C(C)(N)c2nc3cc(C#N)ccc3[nH]2)c2cc[nH]c12 (single isomer, unassigned; (+)) [13-E b) (+), (+)-2-(1-Amino-1-(7-methyl-5-(methylsulfonyl)-1H-indol-4-yl)ethyl)-1H-benzo[d]imidazole-5-carbonitrile]",250
7,"CCC(O)(c1nc2cc(C#N)ccc2[nH]1)c1c(OC(C)C)cc(C)c2[nH]ccc12 (single isomer, unassigned; (-)) [26-F b) (−), (−)-2-(1-hydroxy-1-(5-isopropoxy-7-methyl-1H-indol-4-yl)propyl)-1H-benzo[d]imidazole-5-carbonitrile]",380
8,"Cc1cc(CO)c(C(O)(c2nc3cc(C#N)ccc3[nH]2)C(F)(F)F)c2cc[nH]c12 (racemic) [Example 81-E, (±)-2-(2,2,2-Trifluoro-1-hydroxy-1-(5-(hydroxymethyl)-7-methyl-1H-indol-4-yl)ethyl)-1H-benzo[d]imidazole-5-carbonitrile]",1640
9,"CCc1cc(C)c2[nH]ccc2c1C(C)(N)c1nc2cc(C#N)ccc2[nH]1 (single isomer, unassigned; (+)) [102-C b) (+), (+)-2-(1-amino-1-(5-ethyl-7-methyl-1H-indol-4-yl)ethyl)-1H-benzo[d]imidazole-5-carbonitrile]",50
10,"CNC(c1nc2cc(C#N)ccc2[nH]1)c1c(OC(F)F)cc(C)c2[nH]ccc12 (racemic) [Example 4, (±)-2-((5-(Difluoromethoxy)-7-methyl-1H-indol-4-yl)(methylamino)methyl)-1H-benzo[d]imidazole-5-carbonitrile]",570
11,"Cc1cc(C)c2[nH]cc(-c3ccccc3)c2c1C(O)c1nc2cc(C#N)ccc2[nH]1 (single isomer, unassigned) [118-C b) (tr = 7.9 min), (−) or (+)-2-((5,7-dimethyl-3-phenyl-1H-indol-4-yl)(hydroxy)methyl)-1H-benzo[d]imidazole-5-carbonitrile]",1750
12,"CNC(C)(c1nc2cc(C#N)ccc2[nH]1)c1c(C)cc(C)c2[nH]ccc12 (racemic) [Example 103-E, (±)-2-(1-(5,7-Dimethyl-1H-indol-4-yl)-1-(methylamino)ethyl)-1H-benzo[d]imidazole-5-carbonitrile]",50
13,"Cc1cc(C)c2c(c1Cc1nc3cc(C#N)ccc3[nH]1)CCN2 [Example 123, 2-((5,7-Dimethylindolin-4-yl)methyl)-1H-benzo[d]imidazole-5-carbonitrile]",920
14,"COC(C)(c1nc2cc(C#N)ccc2[nH]1)c1c(OC(F)F)cc(C)c2[nH]ccc12 (single isomer, unassigned; (+)) [8-B b) (+), (+)-2-(1-(5-(difluoromethoxy)-7-methyl-1H-indol-4-yl)-1-methoxyethyl)-1H-benzo[d]imidazole-5-carbonitrile]",10
15,"Cc1cc(C2CC2)c(C(C)(N)c2nc3cc(C#N)ccc3[nH]2)c2cc[nH]c12 (single isomer, unassigned; (+)) [102-D b) (+), (+)-2-(1-amino-1-(5-cyclopropyl-7-methyl-1H-indol-4-yl)ethyl)-1H-benzo[d]imidazole-5-carbonitrile]",6
16,"CCc1cc(C)c2[nH]ccc2c1C(C)(N)c1nc2cc(C#N)ccc2[nH]1 (single isomer, unassigned; (-)) [102-C b) (−), (−)-2-(1-amino-1-(5-ethyl-7-methyl-1H-indol-4-yl)ethyl)-1H-benzo[d]imidazole-5-carbonitrile]",10
17,"CCc1cc(C)c2[nH]ccc2c1C(OC)(c1nc2cc(C#N)ccc2[nH]1)C(F)(F)F (single isomer, unassigned; (-)) [84-D b) (−), (−)-2-(1-(5-ethyl-7-methyl-1H-indol-4-yl)-2,2,2-trifluoro-1-methoxyethyl)-1H-benzo[d]imidazole-5-carbonitrile]",8

row,Compound,IC50 [nM]
1,"COc1cc(C)c2[nH]cc(Cl)c2c1C(C)(O)c1nc2cc(C#N)ccc2[nH]1 (single isomer, unassigned) [Example 29-A, (−) or (+)-2-(1-(3-Chloro-5-methoxy-7-methyl-1H-indol-4-yl)-1-hydroxyethyl)-1H-benzo[d]imidazole-5-carbonitrile]",2030
2,"COc1cc(C)c2[nH]ccc2c1C(C)(N)c1nc2cc(C#N)ccc2[nH]1 (single isomer, unassigned; (+)) [41-B b) (+), (+)-2-(1-amino-1-(5-methoxy-7-methyl-1H-indol-4-yl)ethyl)-1H-benzo[d]imidazole-5-carbonitrile]",190
3,"Cc1cc(OC(C)C)c(C(O)c2nc3cc(C#N)ccc3[nH]2)c2cc[nH]c12 (single isomer, unassigned; (+)) [24-D b) (+), (+)-2-(hydroxy(5-isopropoxy-7-methyl-1H-indol-4-yl)methyl)-1H-benzo[d]imidazole-5-carbonitrile]",1980
4,"Cc1cc(C)c2[nH]ccc2c1C(O)(c1nc2cc(C#N)ccc2[nH]1)C(F)(F)F (single isomer, unassigned; (+)) [80-D b) (+), (+)-2-(1-(5,7-dimethyl-1H-indol-4-yl)-2,2,2-trifluoro-1-hydroxyethyl)-1H-benzo[d]imidazole-5-carbonitrile]",4330
5,"CCc1cc(C)c2[nH]ccc2c1C(OC)(c1nc2cc(C#N)ccc2[nH]1)C(F)(F)F (single isomer, unassigned; (+)) [84-D b) (+), (+)-2-(1-(5-ethyl-7-methyl-1H-indol-4-yl)-2,2,2-trifluoro-1-methoxyethyl)-1H-benzo[d]imidazole-5-carbonitrile]",460
6,"CCc1cc(C)c2[nH]cc(C#N)c2c1C(OC)c1nc2cc(C#N)ccc2[nH]1 (single isomer, unassigned; (-)) [Example 91, (−)-2-((3-Cyano-5-ethyl-7-methyl-1H-indol-4-yl)(methoxy)methyl)-1H-benzo[d]imidazole-5-carbonitrile]",420
7,"COc1cc(C)c2[nH]ccc2c1C(O)(c1nc2cc(C#N)ccc2o1)C(F)(F)F (single isomer, unassigned; (+)) [128-B b) (+), (+)-2-(2,2,2-trifluoro-1-hydroxy-1-(5-methoxy-7-methyl-1H-indol-4-yl)ethyl)benzo[d]oxazole-5-carbonitrile]",1990
8,"CCOc1cc(C)c2[nH]ccc2c1C(O)(c1nc2cc(C#N)ccc2[nH]1)C(F)(F)F (single isomer, unassigned) [33-C b) (tr = 5.1 min), 2-(1-(5-ethoxy-7-methyl-1H-indol-4-yl)-2,2,2-trifluoro-1-hydroxyethyl)-1H-benzo[d]imidazole-5-carbonitrile]",5380
9,"CCc1cc(C)c2[nH]cc(C(F)(F)F)c2c1C(C)(O)c1nc2cc(C#N)ccc2[nH]1 (single isomer, unassigned; (+)) [Example 88, (+)-2-(1-(5-Ethyl-7-methyl-3-(trifluoromethyl)-1H-indol-4-yl)-1-hydroxyethyl)-1H-benzo[d]imidazole-5-carbonitrile]",57900
10,Cc1cc(Br)c(C(O)c2nc3cc(C#N)ccc3[nH]2)c2cc[nH]c12 (stereo not shown) [Example 67-F],2000
11,"COc1cc(C)c2[nH]ccc2c1C(O)c1nc2cc(C#N)ccc2o1 (single isomer, unassigned; (-)) [125-B b) (−), (−)-2-(hydroxy(5-methoxy-7-methyl-1H-indol-4-yl)methyl)benzo[d]oxazole-5-carbonitrile]",3
12,"Cc1cc(CC(C)C)c(C(O)c2nc3cc(C#N)ccc3[nH]2)c2cc[nH]c12 (single isomer, unassigned; (-)) [67-C b) (−), (−)-2-(hydroxy(5-(isobutyl)-7-methyl-1H-indol-4-yl)methyl)-1H-benzo[d]imidazole-5-carbonitrile]",6750
13,"C=C(c1nc2cc(C#N)ccc2[nH]1)c1c(CC)cc(C)c2[nH]ccc12 [Example 114-C, 2-(1-(5-Ethyl-7-methyl-1H-indol-4-yl)vinyl)-1H-benzo[d]imidazole-5-carbonitrile]",70
14,"Cc1cc(C)c2[nH]cc(-c3cccnc3)c2c1C(O)c1nc2cc(C#N)ccc2[nH]1 (single isomer, unassigned) [120 b) (tr = 3.20 min), (−) or (+)-2-((5,7-dimethyl-3-(pyridin-3-yl)-1H-indol-4-yl)(hydroxy)methyl)-1H-benzo[d]imidazole-5-carbonitrile]",29000
15,COCCOc1cc(C)c2[nH]ccc2c1Cc1nc2cc(C#N)ccc2[nH]1 [Example 20-F],5570
16,Cc1cc(C)c2[nH]ccc2c1C(O)(c1nc2cc(C#N)ccc2[nH]1)C1CC1 (stereo not shown) [79-H a)],110
17,"COc1cc(C)c2[nH]cc(Cl)c2c1C(O)c1nc2cc(C#N)ccc2[nH]1 (single isomer, unassigned; (+)) [28-C b) (+), (+)-2-((3-chloro-5-methoxy-7-methyl-1H-indol-4-yl)(hydroxy)methyl)-1H-benzo[d]imidazole-5-carbonitrile]",53900
